Measurements published in the supplement of paper PMC10307832.

Assays:
Assay in all cases: relative viability (nuclei count vs DMSO), 5 days (fraction); higher = more cells survive
Tivantinib + Decitabine = compound: O=C1NC(=O)[C@@H](c2cn3c4c(cccc24)CCC3)[C@@H]1c1c[nH]c2ccccc12 [Tivantinib] + Nc1ncn([C@H]2C[C@H](O)[C@@H](CO)O2)c(=O)n1 [Decitabine] (partner 2 µM)
Procedure, shortened: (§1)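 Relative viability equals treated-well nuclei counts divided by vehicle-well nuclei counts. Counts came from 4× images of lung cancer cell lines grown in 1536-well plates for 5 days after pin-tool dosing on the day after seeding. Dosing used one drug alone or a fixed anchor-drug dose plus five library-drug doses (not always all listed) in √10 steps, and values are medians of duplicate plates.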

Tivantinib + Trametinib = compound: O=C1NC(=O)[C@@H](c2cn3c4c(cccc24)CCC3)[C@@H]1c1c[nH]c2ccccc12 [Tivantinib] + CC(=O)Nc1cccc(-n2c(=O)n(C3CC3)c(=O)c3c(Nc4ccc(I)cc4F)n(C)c(=O)c(C)c32)c1 [Trametinib] (partner 0.02 µM)
Procedure, shortened: as §1

Tivantinib + Linsitinib = compound: O=C1NC(=O)[C@@H](c2cn3c4c(cccc24)CCC3)[C@@H]1c1c[nH]c2ccccc12 [Tivantinib] + C[C@]1(O)C[C@@H](c2nc(-c3ccc4ccc(-c5ccccc5)nc4c3)c3c(N)nccn32)C1 [Linsitinib] (partner 1 µM)
Procedure, shortened: as §1

Crenolanib + Luminespib = compound: CC1(COc2ccc3c(c2)ncn3-c2ccc3cccc(N4CCC(N)CC4)c3n2)COC1 [Crenolanib] + CCNC(=O)c1noc(-c2cc(C(C)C)c(O)cc2O)c1-c1ccc(CN2CCOCC2)cc1 [Luminespib] (partner 0.01 µM)
Procedure, shortened: as §1

Cell Line	relative viability (Tivantinib + Decitabine; first compound 0.01 µM)	relative viability (Tivantinib + Decitabine; first compound 0.03162 µM)	relative viability (Tivantinib + Decitabine; first compound 0.1 µM)	relative viability (Tivantinib + Decitabine; first compound 0.3162 µM)	relative viability (Tivantinib + Trametinib; first compound 0.01 µM)	relative viability (Tivantinib + Trametinib; first compound 0.03162 µM)	relative viability (Tivantinib + Trametinib; first compound 0.1 µM)	relative viability (Tivantinib + Trametinib; first compound 0.3162 µM)	relative viability (Tivantinib + Linsitinib; first compound 0.01 µM)	relative viability (Tivantinib + Linsitinib; first compound 0.03162 µM)	relative viability (Tivantinib + Linsitinib; first compound 0.1 µM)	relative viability (Tivantinib + Linsitinib; first compound 0.3162 µM)	relative viability (Crenolanib + Luminespib; first compound 0.01 µM)	relative viability (Crenolanib + Luminespib; first compound 0.03162 µM)	relative viability (Crenolanib + Luminespib; first compound 0.1 µM)	relative viability (Crenolanib + Luminespib; first compound 0.3162 µM)	relative viability (Crenolanib + Luminespib; first compound 1 µM)
201T	0.829	0.861	0.839	0.81	0.694	0.713	0.729	0.69	1.03	1.03	0.971	0.954	1.03	1.13	1.01	1.09	1.02
A549	0.246	0.276	0.228	0.294	–	–	–	–	0.691	0.545	0.539	0.368	–	–	–	–	–
A-427	0.602	0.579	0.508	0.518	0.795	0.786	0.737	0.673	1.12	1.12	1.12	1.05	0.84	0.828	0.916	1.01	0.816
ABC-1	1.23	1.22	0.825	0.968	–	–	–	–	0.767	0.826	0.557	0.646	–	0.655	0.666	0.47	0.611
BEN	0.755	0.69	0.631	0.796	1.13	0.94	1.01	0.769	0.998	0.725	0.826	0.693	0.644	0.257	0.425	0.528	0.32
CAL-12T	–	–	–	–	0.451	0.269	0.359	0.183	0.785	0.812	0.709	0.397	0.338	0.398	0.272	0.363	0.579
COR-L23	0.496	0.446	0.433	0.445	0.634	0.558	0.545	0.661	0.914	0.884	0.862	0.848	0.709	0.679	0.63	0.848	0.574
COR-L 105	0.641	0.662	0.589	0.596	0.425	0.412	0.455	0.356	0.824	0.695	0.985	0.578	1.12	0.973	0.743	0.859	0.732
Calu-6	–	–	–	–	–	–	–	–	1.02	1.04	–	0.963	–	–	–	–	–
ChaGo-K-1	0.541	0.52	0.562	0.522	0.894	0.88	0.867	0.842	–	–	–	–	0.595	0.612	0.655	0.655	0.68
EBC-1	–	–	–	–	–	–	–	–	0.902	0.626	0.842	0.86	–	–	–	–	–
EKVX	0.312	0.351	0.381	0.153	0.408	0.437	0.325	0.146	1	0.898	0.915	0.25	0.915	0.952	0.909	1.03	0.93
EMC-BAC-2	1.03	0.981	0.941	0.965	0.907	0.934	0.879	0.868	0.842	0.808	0.768	0.666	1.31	1.17	1.17	1.45	1.18
EPLC-272H	0.389	0.331	0.383	0.31	0.346	0.27	0.265	0.227	1.07	1.22	1.19	0.931	0.371	0.574	0.366	0.168	0.319
H3255	–	0.53	0.591	0.27	–	0.5	0.642	0.234	0.95	0.864	0.943	–	0.963	1.06	0.986	0.917	0.854
HARA	0.457	0.61	0.469	0.543	0.66	0.633	0.776	0.371	1.05	0.882	0.882	0.303	0.643	0.734	0.626	0.875	0.828
HCC-15	0.715	0.636	0.538	0.755	0.387	0.371	0.36	0.337	0.89	0.796	0.857	0.911	0.276	0.408	0.355	0.315	0.302
HCC-44	0.988	0.987	0.971	1.09	1.04	1.11	1.02	1.02	0.707	0.589	0.745	0.641	1.26	0.98	1.05	0.771	0.784
HCC-78	0.707	0.694	0.667	0.702	0.761	0.696	0.589	0.445	0.553	0.422	0.477	0.286	–	–	–	–	–
HCC-366	0.349	0.289	0.324	0.301	0.355	0.523	0.338	0.332	0.634	0.543	0.542	0.585	–	–	–	–	–
HCC-827	0.312	0.396	0.316	–	0.54	0.576	0.461	–	1.03	0.991	0.96	0.953	0.7	0.607	0.617	0.568	0.6
HOP-62	0.173	0.191	0.196	0.242	0.458	0.346	0.356	0.37	1.02	–	1.11	1.15	0.944	0.89	0.859	0.93	0.813
